In patent US12186284B2, “Antimicrobial formulations for the treatment of veterinary hoof infections” (Provita Eurotech Ltd, priority 2016, dated 2025):

Assays:
[1] = test system: Escherichia coli (NCTC12241); assay: Rate of kill assay based on BS EN 1276:1997, clean and dirty conditions; format: cell-based; conditions: 3× MIC (0.375% v/v; CS 0.15% w/v)
Text: The rate of kill assay is based on the British and European standard test conditions BS EN 1276:1997.
The initial inoculum of microorganism ranged between 10^6-10^7 colony forming units per mL.

[2] = test system: Escherichia coli (NCTC12241); assay: Minimum inhibitory concentration (MIC); format: cell-based; conditions: three times the minimum inhibitory concentration

## O=S(=O)([O-])[O-].[Cu+2] [CS, copper sulphate]
[1]; contact time 0 s, clean (no bovine albumin)
  Surviving Bacterial Count (cfu/mL) under clean and dirty conditions: 3.2 × 10^6 cfu/mL
[1]; contact time 0 s, dirty (0.3% bovine albumin)
  Surviving Bacterial Count (cfu/mL) under clean and dirty conditions: 1.4 × 10^7 cfu/mL
[1]; contact time 30 s, clean (no bovine albumin)
  Surviving Bacterial Count (cfu/mL) under clean and dirty conditions: 1.7 × 10^6 cfu/mL
[1]; contact time 30 s, dirty (0.3% bovine albumin)
  Surviving Bacterial Count (cfu/mL) under clean and dirty conditions: 1.1 × 10^7 cfu/mL
[1]; contact time 60 s, clean (no bovine albumin)
  Surviving Bacterial Count (cfu/mL) under clean and dirty conditions: 6.2 × 10^5 cfu/mL
[1]; contact time 60 s, dirty (0.3% bovine albumin)
  Surviving Bacterial Count (cfu/mL) under clean and dirty conditions: 9.7 × 10^6 cfu/mL
[1]; contact time 120 s, clean (no bovine albumin)
  Surviving Bacterial Count (cfu/mL) under clean and dirty conditions: 3.3 × 10^5 cfu/mL
[1]; contact time 120 s, dirty (0.3% bovine albumin)
  Surviving Bacterial Count (cfu/mL) under clean and dirty conditions: 5.2 × 10^6 cfu/mL
[1]; contact time 300 s, clean (no bovine albumin)
  Surviving Bacterial Count (cfu/mL) under clean and dirty conditions: 5.0 × 10^3 cfu/mL
[1]; contact time 300 s, dirty (0.3% bovine albumin)
  Surviving Bacterial Count (cfu/mL) under clean and dirty conditions: 3.2 × 10^4 cfu/mL
[2]
  3MIC: 0.15%
